Assay results reported in patent US20240358689A1, “Modulators Of The Beta-3 Adrenergic Receptor Useful For The Treatment Or Prevention Of Renal Cystic Disease and Cardiorenal Syndrome” (Arena Pharmaceuticals, Inc., priority 2021, published 2024).

Target: T1, Beta-3 Adrenergic Receptor (Homo sapiens, UniProt P13945)
T1 construct: expressed in transfected cells; host or cells: CHO-K1
Assay: Homogeneous Time-Resolved Fluorescence (HTRF) cAMP antagonist assay
Type: cell-based
Conditions: Beta-3 Adrenergic Receptor IC50 Values, isoproterenol at EC90
Protocol: Example 1: IC50 Determinations in Homogeneous Time-Resolved Fluorescence (HTRF®) cAMP Antagonist Assays
HTRF cAMP assays were performed according to manufacturer's instructions (Cisbio, cAMP Dynamic 2 Assay Kit; #62AM4PEJ). CHO-K1 cells stably expressing recombinant receptor were harvested and suspended in warm PBS to make a 300,000 cells/mL stock. This cell suspension was dispensed into 384 well assay plates (PerkinElmer ProxiPlate #6008280) at 5 μL per well (1500 cells/well) along with a cAMP standard curve.
Compounds were dissolved and serially diluted (5-fold) in DMSO to generate a 10-point dose response stock. […] After a brief incubation, 2.5 μL of isoproterenol stock, prepared at a concentration 4 times its EC90 at the receptor of interest, was added to the wells. The EC90 for isoproterenol, a beta-adrenergic agonist, was determined in separate experiments using standard methods to measure agonist potencies.
Following a 1-hour incubation at room temperature, 5 μL of cAMP-D2 Reagent diluted in Lysis Buffer was added to each well followed by 5 μL of Cryptate Reagent. Plates were further incubated at room temperature for 1 hour prior to reading. Time resolved fluorescence measurements were collected on a suitable, HTRF-capable plate reader.
Counts from the plate reader were fit to the cAMP standard curve on the assay plate in order to determine cAMP concentrations in each well, and these values were used to construct dose-response curves to obtain IC50 values.

[1] = table of B compounds, CHO-K1 cells

T1 sequence (P13945 whole entry, species assumed): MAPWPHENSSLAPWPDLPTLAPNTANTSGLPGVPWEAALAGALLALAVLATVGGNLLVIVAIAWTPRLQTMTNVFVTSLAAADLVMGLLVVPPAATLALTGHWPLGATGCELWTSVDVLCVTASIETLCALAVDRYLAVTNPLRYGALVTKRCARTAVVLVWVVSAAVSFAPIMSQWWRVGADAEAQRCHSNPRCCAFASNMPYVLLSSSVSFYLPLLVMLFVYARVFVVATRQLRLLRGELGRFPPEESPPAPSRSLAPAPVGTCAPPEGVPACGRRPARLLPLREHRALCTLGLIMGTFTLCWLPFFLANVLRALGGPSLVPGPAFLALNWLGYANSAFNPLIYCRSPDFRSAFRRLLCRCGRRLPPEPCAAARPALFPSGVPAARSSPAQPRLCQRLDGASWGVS

Row | Compound | IC50 [1] [µM] | other results
1 | O=S(=O)(c1cccc(OC[C@@H](O)CN[C@H]2COC3(CCN(S(=O)(=O)c4cnc5cc[nH]c5c4)CC3)C2)c1)C1CC1 [Compound A309, (S)-1-((R)-8-(1H-pyrrolo[3,2-b]pyridin-6-ylsulfonyl)-1-oxa-8-azaspiro[4.5]decan-3-ylamino)-3-(3-(cyclopropylsulfonyl)phenoxy)propan-2-ol] | – | IC50 (table of A compounds, CHO-K1 cells stably expressing recombinant receptor): 0.007 µM
2 | CNS(=O)(=O)c1cccc(OC[C@@H](O)CN[C@H]2COC3(CCN(S(=O)(=O)c4cncc(-c5ccc(CN)cc5)c4)CC3)C2)c1 [Compound B375, 3-((S)-3-((R)-8-(5-(4-(aminomethyl)phenyl)pyridin-3-ylsulfonyl)-1-oxa-8-azaspiro[4.5]decan-3-ylamino)-2-hydroxypropoxy)-N-methylbenzenesulfonamide] | 0.0254 | –
3 | CN1CCOc2ncc(S(=O)(=O)N3CCC4(CC3)C[C@@H](NC[C@H](O)COc3cccc(S(=O)(=O)N[C@@H]5CCC[C@@H]5O)c3)CO4)cc21 [Compound B437, 3-((S)-2-hydroxy-3-((R)-8-(1-methyl-2,3-dihydro-1H-pyrido[2,3-b][1,4]oxazin-7-ylsulfonyl)-1-oxa-8-azaspiro[4.5]decan-3-ylamino)propoxy)-N-((1R,2S)-2-hydroxycyclopentyl)benzenesulfonamide] | 0.472 | –
4 | CNS(=O)(=O)c1cccc(OC[C@@H](O)CN[C@H]2COC3(CCN(c4nccc(C(=O)O)n4)CC3)C2)c1 [Compound B582, 2-((R)-3-((S)-2-hydroxy-3-(3-(N-methylsulfamoyl)phenoxy)propylamino)-1-oxa-8-azaspiro[4.5]decan-8-yl)pyrimidine-4-carboxylic acid] | – | IC50 (table of B compounds, cells in μM, CHO-K1 cells): ≥ 100 µM
